{"source": "ChEMBL document CHEMBL5252642", "about": "“Design and synthesis of naturally-inspired SARS-CoV-2 inhibitors” (RSC Med Chem, 2023)", "note": "Calls of active or inactive are those of the source. The calls are words filed in the database; no cut-off is given here."}
{"test_system": "not listed separately", "assay": "Selectivity index, ratio of CC50 for human A549-ACE2 cells to EC50 for antiviral activity against SARS-CoV-2 Omicron BA1 variant infected human A549-ACE2 cells", "format": "toxicity", "settings": "read-out: Ratio CC50/EC50"}
{"compound": "COc1cc(CN2C[C@H]3O[C@]4(C2)CN(S(=O)(=O)c2ccc(C)cc2)[C@]2(C(C)C)CC[C@H](OCCCN(C)C)[C@H]3[C@H]42)cc(OC)c1", "selectivity ratio": 5.7}
{"compound": "Cc1ccc(S(=O)(=O)N2C[C@@]34CN(C)C[C@@H](O3)[C@H]3[C@@H](Oc5ncccn5)CC[C@]2(C(C)C)[C@H]34)cc1", "selectivity ratio": 0.8}
{"compound": "Cc1ccc(S(=O)(=O)N2C[C@@]34CN(Cc5nc6ccccc6s5)C[C@@H](O3)[C@H]3C(=O)CC[C@]2(C(C)C)[C@H]34)cc1", "selectivity ratio": 6.9}
{"compound": "COc1cc(CN2C[C@H]3O[C@]4(C2)CN(S(=O)(=O)c2ccc(C)cc2)[C@]2(C(C)C)CC[C@H](O)[C@H]3[C@H]42)cc(OC)c1", "selectivity ratio": 2.3}
{"compound": "Cc1ccc(S(=O)(=O)N2C[C@@]34CN(Cc5ccccc5)C[C@@H](O3)[C@H]3C(=O)C=C[C@]2(C(C)C)[C@H]34)cc1", "selectivity ratio": 0.9}
{"compound": "Cc1ccc(S(=O)(=O)N2C[C@@]34CN(Cc5ccccc5)C[C@@H](O3)[C@H]3[C@@H](Oc5ncccn5)CC[C@]2(C(C)C)[C@H]34)cc1", "selectivity ratio": 1}
{"compound": "Cc1ccc(S(=O)(=O)N2C[C@@]34CN(CCc5c[nH]c6ccccc56)C[C@@H](O3)[C@@H]3[C@H]4[C@@]2(C(C)C)CC[C@@H]3O)cc1", "selectivity ratio": 1.6}
{"compound": "Cc1ccc(S(=O)(=O)N2C[C@@]34CN(Cc5nc6ccccc6s5)C[C@@H](O3)[C@@H]3[C@H]4[C@@]2(C(C)C)CC[C@@H]3O)cc1", "selectivity ratio": 1.6}
{"compound": "Cc1ccc(S(=O)(=O)N2C[C@@]34CN(Cc5ccccc5)C[C@@H](O3)[C@@H]3[C@H]4[C@@]2(C(C)C)C=C[C@@H]3O)cc1", "selectivity ratio": "> 3"}
{"compound": "Cc1ccc(S(=O)(=O)N2C[C@@]34CN(C(=O)c5ccc(F)cc5N)C[C@@H](O3)[C@@H]3[C@H]4[C@@]2(C(C)C)CC[C@@H]3O)cc1", "selectivity ratio": 1.4}
{"compound": "Cc1ccc(S(=O)(=O)N2C[C@@]34CN(C(=O)c5cccs5)C[C@@H](O3)[C@@H]3[C@H]4[C@@]2(C(C)C)CC[C@@H]3O)cc1", "selectivity ratio": "> 3"}
{"compound": "Cc1ccc(S(=O)(=O)N2C[C@@]34CN(Cc5ccccc5)C[C@@H](O3)[C@H]3C(=O)CC[C@]2(C(C)C)[C@H]34)cc1", "selectivity ratio": 0.7}
{"compound": "COc1ccc(CCN2C[C@H]3O[C@]4(C2)CN(S(=O)(=O)c2ccc(C)cc2)[C@]2(C(C)C)C=CC(=O)[C@H]3[C@H]42)cc1", "selectivity ratio": 0.5}
{"compound": "COc1ccc(CCN2C[C@H]3O[C@]4(C2)CN(S(=O)(=O)c2ccc(C)cc2)[C@]2(C(C)C)C=C[C@H](O)[C@H]3[C@H]42)cc1", "selectivity ratio": 3.3}
{"test_system": "Severe acute respiratory syndrome coronavirus 2", "assay": "Inhibition of SARS-CoV2 main protease C145A mutant by measuring luciferase signal at 0.02 to 125 uM by reverse-nanoluciferase reporter assay", "settings": "dose 0.02-125 µM"}
{"compound": "CC(C)C[C@H](NC(=O)OCc1ccccc1)C(=O)N[C@@H](C[C@@H]1CCNC1=O)C(O)S(=O)(=O)O", "note": "(stereo partly drawn)", "inhibition": "inactive"}
{"compound": "COc1ccc(CCN2C[C@H]3O[C@]4(C2)CN(S(=O)(=O)c2ccc(C)cc2)[C@]2(C(C)C)C=C[C@H](O)[C@H]3[C@H]42)cc1", "inhibition": "inactive"}
{"test_system": "SARS-CoV-2", "assay": "Antiviral activity against SARS-CoV-2 Omicron BA1 variant infected human A549-ACE2 cells assessed as inhibition of viral replication", "format": "functional, organism-based", "settings": "Severe acute respiratory syndrome coronavirus 2, Omicron BA1, A549-ACE2", "units": {"EC50": "µM"}}
{"compound": "COc1cc(CN2C[C@H]3O[C@]4(C2)CN(S(=O)(=O)c2ccc(C)cc2)[C@]2(C(C)C)CC[C@H](OCCCN(C)C)[C@H]3[C@H]42)cc(OC)c1", "EC50": 4.4}
{"compound": "COc1ccc(CCN2C[C@H]3O[C@]4(C2)CN(S(=O)(=O)c2ccc(C)cc2)[C@]2(C(C)C)C=C[C@H](O)[C@H]3[C@H]42)cc1", "EC50": 3.5}
